Measured values taken from PubChem BioAssay (NCI).
Values joined by “and” are separate entries in the source; they are usually repeats but may differ in a detail not shown here. Equal entries are not always repeated.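 Each compound was tested at five concentrations against cells in 96-well plates for 48 hours. GI50 is the concentration that inhibits growth by half. TGI: total growth inhibition.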

Key:
Experiment in all cases: inhibition of tumour cell growth, NCI panel, 48 h
[1] = tested on: M14 melanoma
[2] = tested on: UACC-62 melanoma
[3] = tested on: IGROV1 ovarian
[4] = tested on: MOLT-4 leukemia
[5] = tested on: NCI-H226 lung
[6] = tested on: HCT-116 colon
[7] = tested on: HCT-15 colon
[8] = tested on: SW-620 colon
[9] = tested on: SR leukemia

SMILES	GI50 [1] [µM]	TGI [1] [µM]	GI50 [2] [µM]	TGI [2] [µM]	GI50 [3]	TGI [3]	GI50 [4]	TGI [4] [µM]	GI50 [5] [µM]	TGI [5] [µM]	GI50 [6] [µM]	TGI [6] [µM]	GI50 [7]	TGI [7] [µM]	GI50 [8]	TGI [8] [µM]	GI50 [9] [µM]	TGI [9] [µM]
CN(CCC#N)c1ccc(/C=C(\C#N)c2cccc(C(F)(F)F)c2)cc1	3.51	> 100	3.96	> 100	4.95 µM	> 100 µM	3.06 µM	> 100	6.02	> 100	3.21	> 100	3.14 µM	> 100	3.17 µM	> 100	2.52	> 100
CNC(=S)N/N=C1\CC(c2ccccc2)Oc2ccccc21 (centres undefined)	–	> 100	–	> 100	–	> 100 µM	–	> 100	–	> 100	–	> 100	–	–	–	> 100	–	> 100
COc1ccc(Cl)cc1Nc1nc(C(F)(F)F)ccc1C(=O)N/N=C/c1ccc([N+](=O)[O-])cc1	1.6	5.41	2.17	6.77	2.56 µM	6.49 µM	3.82 µM	13.2	2.01	8.65	2.45	14.7	1.29 µM	5.11	2.77 µM	> 100	1.76	4.95
CCNC(C)(C)C(SS)c1ccc(Br)cc1 (centres undefined)	–	> 100	–	> 100	–	> 100 µM	–	69.3	–	> 100	–	> 100	–	> 100	–	56.2	–	> 100
Cc1c(C)c2c(c(C)c1NC(=O)/C=C\C(=O)O)CCC(C)(CCCC(C)CCCC(C)CCCC(C)C)O2 (centres undefined)	1.37	2.75	1.8	3.22	1.94 µM	4.88 µM	2.06 µM	7.19	1.96	4.38	1.28	2.54	1.83 µM	4.65	1.66 µM	3.25	1.61	4.63
O=[N+]([O-])c1cc([N+](=O)[O-])c(Cl)c(Cl)c1Cl	–	–	1.31	2.64	1.23 µM	7.25 µM	0.831 µM	5.82	–	–	0.24	0.743	–	–	0.535 µM	1.94	0.639	5.86
Cc1cc(=O)oc2c(CN3CCCCC3)c(O)ccc12	–	> 100	–	> 100	–	> 100 µM	–	> 100	–	> 100	–	> 100	–	> 100	–	> 100	–	> 100
O=C(/C=C/C12c3ccccc3C(c3ccccc31)C1C(=O)N(c3ccccc3)C(=O)C12)c1ccc(Cl)cc1 (centres undefined)	2.14	6.78	1.66	4.58	2.1 µM	6.09 µM	0.759 µM	> 100	2.04	5.82	0.537	2.16	1.19 µM	6.46	2.27 µM	> 100	1.07	> 100
N=Nc1c(OC(=O)Nc2ccccc2)[nH]c2ccccc12	–	37.9	–	35.5	–	42.2 µM	–	–	–	37.9	–	31.6	–	> 100	–	> 100	–	> 100
CCN(CC)C(=O)CC1=C(C)/C(=C/c2[nH]c(-c3ccc[nH]3)cc2OC)N=C1C	0.227	0.607	–	–	0.43 µM	15.6 µM	0.357 µM	39.4	0.531	6.11	0.286	10.3	0.278 µM	0.891	0.334 µM	13.4	0.289	0.994
CC(=O)Nc1ccc(-c2c3nc(c(-c4cc5ccccc5[n+](C)c4)c4ccc([nH]4)c(-c4ccc(NC(C)=O)cc4)c4nc(c(-c5cc6ccccc6[n+](C)c5)c5ccc2[nH]5)C=C4)C=C3)cc1	28.6	> 50	23.9	> 50	13.7 µM	> 50 µM	> 50 µM	> 50	–	–	22	> 50	> 50 µM	> 50	23.6 µM	> 50	–	–
O=C1c2ccccc2NC(c2cc(Cl)cc(Cl)c2O)N1CCc1ccccn1 (centres undefined)	–	> 100	–	> 100	–	> 100 µM	–	–	–	> 100	–	> 100	–	> 100	–	> 100	–	> 100
COc1ccc(-c2nn(-c3ccc(NC(=O)c4ccc(Cl)c(C(F)(F)F)c4)cc3)cc2-c2ccncc2)cc1Cl	0.471	3.08	1.07	5.02	9.68 µM	> 100 µM	0.388 µM	> 100	4.75	> 100	1.05	> 100	–	–	1.06 µM	> 100	0.316	> 100
CN1CCN(CCCOc2cccc3nc(Nc4ccc(Cl)c(F)c4)ccc23)CC1	1.73	3.37	2.05	4.1	1.95 µM	4.31 µM	1.82 µM	3.77	2.05	4.14	1.56	3.03	1.4 µM	2.79	1.97 µM	3.71	–	–
O=C(CCN1CCOCC1)Nc1ccc(F)cc1F	–	> 100	–	> 100	–	> 100 µM	–	> 100	–	> 100	–	> 100	–	> 100	–	> 100	–	> 100
COC(=O)CCC(C)[C@H]1CCC2C3C(C[C@H](OC(C)=O)[C@@]21C)[C@@]1(C)CCC2(C[C@H]1C[C@H]3OC(C)=O)OOC1(CCC(C)CC1)OO2 (some centres undefined)	–	> 100	–	> 100	3.82 µM and 10.1 µM	16.4 µM and 27.3 µM	2.86 µM and 25.5 µM	> 100	–	> 100	–	> 100	8.89 µM and 30.9 µM	> 100	4.68 µM and 31.4 µM	> 100	–	> 100
CCCCN(CCCC)c1ccc(C(=N)c2ccc(N(C)C)cc2)cc1	0.908	2.25	0.449	1.77	0.906 µM	2.44 µM	–	–	1.2	2.63	0.307	1.22	0.665 µM	2.2	0.438 µM	1.78	–	–
